Laboratory results as given in PubChem BioAssay AID256 (DTP/NCI, 2004).
Values joined by “and” are separate entries in the source; they are usually repeats but may differ in a detail not shown here. Equal entries are not always repeated. Toxic doses and inconclusive results are not listed. Rule for the calls: active = survival T/C of 150% or more; inactive = T/C below 125% in these data.

Tested on: CD2F1 mice, L1210 leukemia ip, survival T/C
Assay: NCI In Vivo Anticancer Drug Screen. Data for tumor model L1210 Leukemia (intraperitoneal) in CD2F1 (CDF1) mice
Details: higher = longer survival
Procedure, shortened: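 Each value reflects a quotient of treated over vehicle control outcomes in mice with a transplanted tumor.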

Measured: T/C

NC(C/[N+]([O-])=N/O)C(=O)O (configuration not stated)
active: endpoint: mean survival time, dose: 512.0 mg/kg/injection, schedule: Q04DX003 (ip), vehicle: saline 170 % of control | endpoint: mean survival time, dose: 512.0 mg/kg/injection, schedule: Q04DX003 (sc), vehicle: saline 155 % of control | endpoint: median survival time, dose: 90.0 mg/kg/injection, schedule: Q01DX009 (ip), vehicle: alkali diluted with saline 158 % of control | endpoint: median survival time, dose: 162.0 mg/kg/injection, schedule: Q04DX003 (ip), vehicle: alkali diluted with saline 151 % of control | endpoint: median survival time, dose: 250.0 mg/kg/injection, schedule: Q04DX003 (ip), vehicle: water 155 % of control and 177 % of control | endpoint: median survival time, dose: 270.0 mg/kg/injection, schedule: Q04DX003 (ip), vehicle: alkali diluted with saline 172 % of control | endpoint: median survival time, dose: 450.0 mg/kg/injection, schedule: Q04DX003 (ip), vehicle: alkali diluted with saline 189 % of control | endpoint: median survival time, dose: 500.0 mg/kg/injection, schedule: Q04DX003 (ip), vehicle: water 194 % of control
inactive: endpoint: mean survival time, dose: 5.0 mg/kg/injection, schedule: Q01DX009 (ip), vehicle: alkali diluted with saline 100 % of control | endpoint: mean survival time, dose: 7.5 mg/kg/injection, schedule: Q01DX005 (ip), vehicle: alkali diluted with saline 98 % of control | endpoint: mean survival time, dose: 8.0 mg/kg/injection, schedule: Q03HX008 (ip), vehicle: saline 111 % of control | endpoint: mean survival time, dose: 8.0 mg/kg/injection, schedule: Q03HX016 (ip), vehicle: saline 105 % of control | endpoint: mean survival time, dose: 8.0 mg/kg/injection, schedule: Q03HX024 (ip), vehicle: saline 109 % of control | endpoint: mean survival time, dose: 8.78 mg/kg/injection, schedule: Q01DX010 (ip), vehicle: alkali diluted with saline 121 % of control | endpoint: mean survival time, dose: 9.38 mg/kg/injection, schedule: Q01DX009 (ip), vehicle: alkali diluted with saline 118 % of control | endpoint: mean survival time, dose: 10.0 mg/kg/injection, schedule: Q01DX009 (ip), vehicle: alkali diluted with saline 101 % of control | endpoint: mean survival time, dose: 13.2 mg/kg/injection, schedule: Q01DX010 (ip), vehicle: alkali diluted with saline 120 % of control | endpoint: mean survival time, dose: 15.0 mg/kg/injection, schedule: Q01DX005 (ip), vehicle: alkali diluted with saline 113 % of control | endpoint: mean survival time, dose: 16.0 mg/kg/injection, schedule: Q01DX009 (sc), vehicle: saline 97 % of control | endpoint: mean survival time, dose: 16.0 mg/kg/injection, schedule: Q03HX008 (ip), vehicle: saline 112 % of control | endpoint: mean survival time, dose: 16.0 mg/kg/injection, schedule: Q03HX016 (ip), vehicle: saline 104 % of control | endpoint: mean survival time, dose: 16.0 mg/kg/injection, schedule: Q03HX024 (ip), vehicle: saline 112 % of control | endpoint: mean survival time, dose: 18.75 mg/kg/injection, schedule: Q01DX009 (ip), vehicle: alkali diluted with saline 119 % of control | endpoint: mean survival time, dose: 18.8 mg/kg/injection, schedule: Q01DX009 (ip), vehicle: alkali diluted with saline 102 % of control | endpoint: mean survival time, dose: 19.8 mg/kg/injection, schedule: Q01DX010 (ip), vehicle: alkali diluted with saline 121 % of control | endpoint: mean survival time, dose: 20.0 mg/kg/injection, schedule: Q01DX009 (ip), vehicle: alkali diluted with saline 105 % of control | endpoint: mean survival time, dose: 28.12 mg/kg/injection, schedule: Q04DX003 (ip), vehicle: alkali diluted with saline 103 % of control | endpoint: mean survival time, dose: 30.0 mg/kg/injection, schedule: Q01DX005 (ip), vehicle: alkali diluted with saline 122 % of control | endpoint: mean survival time, dose: 32.0 mg/kg/injection, schedule: Q01DX009 (ip), vehicle: saline 123 % of control | endpoint: mean survival time, dose: 32.0 mg/kg/injection, schedule: Q01DX009 (sc), vehicle: saline 103 % of control | endpoint: mean survival time, dose: 32.0 mg/kg/injection, schedule: Q03HX008 (ip), vehicle: saline 108 % of control | endpoint: mean survival time, dose: 32.0 mg/kg/injection, schedule: Q03HX016 (ip), vehicle: saline 113 % of control | endpoint: mean survival time, dose: 37.5 mg/kg/injection, schedule: Q01DX009 (ip), vehicle: alkali diluted with saline 120 % of control and 124 % of control | endpoint: mean survival time, dose: 40.0 mg/kg/injection, schedule: Q01DX009 (ip), vehicle: alkali diluted with saline 120 % of control | endpoint: mean survival time, dose: 56.25 mg/kg/injection, schedule: Q04DX003 (ip), vehicle: alkali diluted with saline 116 % of control and 103 % of control | endpoint: mean survival time, dose: 64.0 mg/kg/injection, schedule: Q01DX001 (ip), vehicle: saline 111 % of control | endpoint: mean survival time, dose: 64.0 mg/kg/injection, schedule: Q01DX009 (oral), vehicle: saline 96 % of control | endpoint: mean survival time, dose: 64.0 mg/kg/injection, schedule: Q01DX009 (sc), vehicle: saline 111 % of control | endpoint: mean survival time, dose: 64.0 mg/kg/injection, schedule: Q03HX008 (ip), vehicle: saline 116 % of control | endpoint: mean survival time, dose: 64.0 mg/kg/injection, schedule: Q03HX016 (ip), vehicle: saline 116 % of control | endpoint: mean survival time, dose: 64.0 mg/kg/injection, schedule: Q04DX003 (ip), vehicle: saline 116 % of control | endpoint: mean survival time, dose: 64.0 mg/kg/injection, schedule: Q04DX003 (oral), vehicle: saline 98 % of control | endpoint: mean survival time, dose: 64.0 mg/kg/injection, schedule: Q04DX003 (sc), vehicle: saline 96 % of control | endpoint: mean survival time, dose: 64.0 mg/kg/injection, schedule: Q08DX002 (ip), vehicle: saline 109 % of control | endpoint: mean survival time, dose: 112.5 mg/kg/injection, schedule: Q04DX003 (ip), vehicle: alkali diluted with saline 123 % of control | endpoint: mean survival time, dose: 128.0 mg/kg/injection, schedule: Q01DX001 (ip), vehicle: saline 113 % of control | endpoint: mean survival time, dose: 128.0 mg/kg/injection, schedule: Q01DX009 (ip), vehicle: saline 95 % of control | endpoint: mean survival time, dose: 128.0 mg/kg/injection, schedule: Q01DX009 (oral), vehicle: saline 91 % of control | endpoint: mean survival time, dose: 128.0 mg/kg/injection, schedule: Q01DX009 (sc), vehicle: saline 104 % of control | endpoint: mean survival time, dose: 128.0 mg/kg/injection, schedule: Q04DX003 (oral), vehicle: saline 102 % of control | endpoint: mean survival time, dose: 128.0 mg/kg/injection, schedule: Q04DX003 (sc), vehicle: saline 105 % of control | endpoint: mean survival time, dose: 128.0 mg/kg/injection, schedule: Q08DX002 (ip), vehicle: saline 112 % of control | endpoint: mean survival time, dose: 150.0 mg/kg/injection, schedule: Q01DX009 (ip), vehicle: alkali diluted with saline 102 % of control | endpoint: mean survival time, dose: 256.0 mg/kg/injection, schedule: Q01DX001 (ip), vehicle: saline 123 % of control | endpoint: mean survival time, dose: 256.0 mg/kg/injection, schedule: Q04DX003 (ip), vehicle: saline 119 % of control | endpoint: mean survival time, dose: 256.0 mg/kg/injection, schedule: Q04DX003 (oral), vehicle: saline 116 % of control | endpoint: mean survival time, dose: 256.0 mg/kg/injection, schedule: Q04DX003 (sc), vehicle: saline 122 % of control | endpoint: mean survival time, dose: 1024.0 mg/kg/injection, schedule: Q04DX003 (ip), vehicle: saline 90 % of control | endpoint: mean survival time, dose: 1024.0 mg/kg/injection, schedule: Q04DX003 (oral), vehicle: saline 119 % of control | endpoint: mean survival time, dose: 1024.0 mg/kg/injection, schedule: Q04DX003 (sc), vehicle: saline 89 % of control | endpoint: mean survival time, dose: 1024.0 mg/kg/injection, schedule: Q08DX002 (ip), vehicle: saline 118 % of control | endpoint: median survival time, dose: 0.78 mg/kg/injection, schedule: Q01DX009 (ip), vehicle: water 100 % of control | endpoint: median survival time, dose: 0.78 mg/kg/injection, schedule: Q04DX003 (ip), vehicle: water 100 % of control | endpoint: median survival time, dose: 1.57 mg/kg/injection, schedule: Q01DX009 (ip), vehicle: water 95 % of control and 100 % of control | endpoint: median survival time, dose: 1.57 mg/kg/injection, schedule: Q04DX003 (ip), vehicle: water 95 % of control | endpoint: median survival time, dose: 3.13 mg/kg/injection, schedule: Q01DX009 (ip), vehicle: water 100 % of control | endpoint: median survival time, dose: 3.13 mg/kg/injection, schedule: Q04DX003 (ip), vehicle: water 95 % of control and 100 % of control | endpoint: median survival time, dose: 6.25 mg/kg/injection, schedule: Q01DX009 (ip), vehicle: water 110 % of control | endpoint: median survival time, dose: 6.25 mg/kg/injection, schedule: Q04DX003 (ip), vehicle: water 90 % of control and 95 % of control | endpoint: median survival time, dose: 12.5 mg/kg/injection, schedule: Q01DX009 (ip), vehicle: water 105 % of control | endpoint: median survival time, dose: 12.5 mg/kg/injection, schedule: Q04DX003 (ip), vehicle: water 90 % of control and 100 % of control | endpoint: median survival time, dose: 13.0 mg/kg/injection, schedule: Q01DX009 (ip), vehicle: alkali diluted with saline 120 % of control | endpoint: median survival time, dose: 16.2 mg/kg/injection, schedule: Q01DX009 (ip), vehicle: alkali diluted with saline 119 % of control | endpoint: median survival time, dose: 21.6 mg/kg/injection, schedule: Q01DX009 (ip), vehicle: alkali diluted with saline 122 % of control | endpoint: median survival time, dose: 25.0 mg/kg/injection, schedule: Q01DX009 (ip), vehicle: water 100 % of control | endpoint: median survival time, dose: 25.0 mg/kg/injection, schedule: Q04DX003 (ip), vehicle: water 90 % of control and 105 % of control | endpoint: median survival time, dose: 27.0 mg/kg/injection, schedule: Q01DX009 (ip), vehicle: alkali diluted with saline 124 % of control | endpoint: median survival time, dose: 31.3 mg/kg/injection, schedule: Q01DX009 (ip), vehicle: water 122 % of control | endpoint: median survival time, dose: 31.3 mg/kg/injection, schedule: Q04DX003 (ip), vehicle: water 116 % of control | endpoint: median survival time, dose: 35.0 mg/kg/injection, schedule: Q04DX003 (ip), vehicle: alkali diluted with saline 120 % of control | endpoint: median survival time, dose: 36.0 mg/kg/injection, schedule: Q01DX009 (ip), vehicle: alkali diluted with saline 120 % of control | endpoint: median survival time, dose: 58.3 mg/kg/injection, schedule: Q04DX003 (ip), vehicle: alkali diluted with saline 120 % of control | endpoint: median survival time, dose: 62.5 mg/kg/injection, schedule: Q01DX009 (ip), vehicle: water 122 % of control | endpoint: median survival time, dose: 62.5 mg/kg/injection, schedule: Q04DX003 (ip), vehicle: water 122 % of control | endpoint: median survival time, dose: 125.0 mg/kg/injection, schedule: Q01DX009 (ip), vehicle: alkali diluted with saline 114 % of control | endpoint: median survival time, dose: 125.0 mg/kg/injection, schedule: Q01DX009 (ip), vehicle: water 88 % of control | endpoint: median survival time, dose: 125.0 mg/kg/injection, schedule: Q04DX003 (ip), vehicle: water 122 % of control
